Data from patent US7601805B2, “Photoprotein with improved bioluminescence” (AXXAM S.R.L., priority 2002, dated 2009).

Legend:
[1] = tested on: endogenous ATP receptor expressed by CHO-K1 cell; assay: ATP-stimulated light emission in CHO-K1 cells transfected with Photin DNA; type: cell-based; conditions: two different concentrations of ATP (FIG. 3A)
Protocol: Cell transfection, harvesting, and Photin expression were performed as described in Example 1. Cells were treated with two different concentration of ATP. (B) The CHO-K1 cells transfected with Obelin DNA were used as positive control. Luminescence is expressed in RLU (relative light units).
3.1 Photin-expressing clones have been obtained by transfection of CHO-K1 cells (Materials and Methods). Two days after transfection the cells were trypsinized and diluted 10 or 100 times. Once the cells were grown up to well isolated colonies, the colonies were transferred to new plates and selected on the basis of their functional response (luminescent signal) to different concentration of ATP, which is known to stimulate the CHO endogenous receptor and to rise the cytoplasmic Ca^++ concentration. At the end of each experiment, cells were lysed by perfusion of a solution containing TritonX-100 and CaCl2. The active photoprotein was reconstituted incubating the cells with 10 μM coelenterazine diluted in PBS containing 2 mM calcium, in the dark at 37° C. in a 5% CO2 atmosphere for 3 hrs. For light emission measurement, cells were lysed in the presence of calcium and the emitted luminescence recorded. […] To detect changes in calcium concentrations, 10, 50 and 100 μM ATP were injected and the kinetics of calcium response determined. […]

[2] = molecular target: T1, rat VR1 capsaicin receptor (Rattus norvegicus, UniProt O35433); assay: Capsaicin-stimulated flash luminescence in CHO cells expressing Apophotin and rat VR1; type: cell-based; conditions: 10 and 50 μM capsaicin; CHO cells with Apophotin and rat VR1 (FIG. 5)
T1 construct: expressed in transfected cells; host or cells: CHO
T1 sequence (O35433 whole entry): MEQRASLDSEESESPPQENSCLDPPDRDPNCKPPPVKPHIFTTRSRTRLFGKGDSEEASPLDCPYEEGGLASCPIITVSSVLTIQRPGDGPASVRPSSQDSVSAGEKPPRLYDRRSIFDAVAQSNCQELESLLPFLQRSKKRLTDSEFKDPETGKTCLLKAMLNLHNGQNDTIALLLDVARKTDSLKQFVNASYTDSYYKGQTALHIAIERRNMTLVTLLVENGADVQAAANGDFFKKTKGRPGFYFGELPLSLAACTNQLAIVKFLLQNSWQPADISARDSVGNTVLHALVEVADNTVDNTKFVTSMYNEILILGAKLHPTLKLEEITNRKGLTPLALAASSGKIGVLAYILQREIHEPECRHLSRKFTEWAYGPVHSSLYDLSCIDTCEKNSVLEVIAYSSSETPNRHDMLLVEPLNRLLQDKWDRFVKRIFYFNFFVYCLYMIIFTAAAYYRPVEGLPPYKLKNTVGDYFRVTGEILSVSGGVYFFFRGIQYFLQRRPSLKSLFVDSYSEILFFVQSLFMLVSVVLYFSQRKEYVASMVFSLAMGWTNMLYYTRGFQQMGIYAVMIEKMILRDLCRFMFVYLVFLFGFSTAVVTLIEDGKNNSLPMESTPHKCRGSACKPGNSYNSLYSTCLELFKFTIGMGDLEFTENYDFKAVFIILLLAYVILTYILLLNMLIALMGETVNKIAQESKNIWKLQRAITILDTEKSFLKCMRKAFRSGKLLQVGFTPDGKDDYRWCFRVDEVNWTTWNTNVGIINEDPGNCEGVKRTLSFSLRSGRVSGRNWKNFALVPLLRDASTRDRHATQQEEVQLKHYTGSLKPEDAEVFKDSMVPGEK
Protocol: The specific agonist, capsaicin, was used at a concentration of 10 and 50 μM.
3.3 CHO cell lines expressing both Apophotin and the rat VR1 capsaicin receptor—a calcium-permeable ion channel—were grown to 80-95% confluence in tissue culture flasks and harvested by trypsinization. Cells were dispensed at 10,000 cells/well in a 96-well white plates in growth medium and incubated overnight at 37° C. in a humidified incubator at 5% CO2. For luminescence experiments, the cells were loaded with coelenterazine 10 μM for 3 h at 37° C., 5% CO2. Calcium response was stimulated by addition of 10 and 50 μM capsaicin to each well. The kinetics of flash luminescence was followed using Labsystem Luminoskan Ascent, which injects reagents and records light emission from each single well.

time of peak level of luminescence signal [2]	time within which the rapid and transient luminescence signal occurred [2] [s]	SMILES	light emission upon stimulation of the endogenous ATP receptor [1]
		Nc1ncnc2c1ncn2[C@@H]1O[C@H](COP(=O)(O)OP(=O)(O)OP(=O)(O)O)[C@@H](O)[C@H]1O [ATP]	dose dependent light emission
about 10 seconds	≤ 30	COc1cc(CNC(=O)CCCC/C=C/C(C)C)ccc1O [capsaicin]	
